Consider seven compounds from patent US11135231B2, “Methods and compositions for prevention and treatment of Apicomplexan infections” (Tufts Medical Center, Inc., priority 2016, dated 2021).

Read-outs that look alike come from different tables or passages of the source.

For test [1], the system named is P. falciparum strains. Also on record: key: R = Clinically Resistant; S + Sensitive. Conditions: cited from earlier work.
For test [2], the system named is Plasmodium falciparum 3D7. Briefly: P. falciparum SYBR green flow cytometry assay. In kind it is cell-based. Conditions: 72 hours, read-out: EC50, proliferation of Plasmodium falciparum 3D7. As for the experimental part: Plasmodium falciparum: Parasites were cultured in 96-well plates at 0.5% initial parasitemia. Parasites were cultured for 72 hours in the presence of dilutions of tartrolon D2, dihydroartemisinin (DHA, a drug for treating malaria as a positive control) or DMSO after which parasites were stained with SYBR green fluorescence and enumerated by flow cytometry. The assay was conducted once and all samples were run in triplicate. Data was analyzed with GraphPad Prism as described for T. gondii.
For orientation: A flow cytometer gives signals particle by particle.

Test [3] concerns P. falciparum strains. Briefly: 3H hypoxanthine incorporation assay of P. falciparum strains in human red blood cells. In kind it is cell-based, Plasmodium falciparum. The protocol:
The potency of the compounds of the invention against multi-drug resistant P. falciparum strains was tested. Parasites were cultured in 96-well plates in human red blood cells at 0.5% initial parasitemia for 72 hours in the presence of dilutions of tartrolon D/E (specifically, D2 as the starting material in FIG. 11A), purified tartrolon E (FIG. 11C), dihydroartemisinin (DHA, as a positive control in FIG. 11B), or DMSO (as a negative control). Parasites proliferation was then determined by ^3H hypoxanthine incorporation.
Specifically, parasitized red blood cells (pRBCs) were grown in 0.5% Albumax I (Thermo Fisher Scientific). Assays were set up in 96-well plates at 0.5% initial parasitemia and 0.5% hematocrit. Parasites were exposed to various concentrations of Tartrolon D or E and dihydroartemisinin (DHA) for 48 hours and then pulsed with 0.5 microcuries of tritium-labeled hypoxanthine Moravek (MT-700) for another 24 hours. At the end of 72 hours, assay plates were processed through an Inotech cell harvester and collected on Inotech glass fiber filters. Filters were transferred to Omniplate-96 cassettes (Perkin Elmer) and dried overnight at room temperature. About […] of Microscint-O scintillation cocktail (Perkin Elmer) was added to each well. Each well was counted for 2 minutes on a Packard Topcount scintillation counter. The uptake of radiolabeled hypoxanthine by compound-treated pRBCs was compared relative to uptake by DMSO solvent-treated controls. […] The starting material used as the active reagent in FIG. 11C was tartrolon E, purified as follows: extract from the bacterial pellet of the Teredinibacter turnerae T7901 was purified by reversed phase HPLC using diode array detection. A C18 column (Phenomenex CHO-7878, 100×10 mm) was employed with an isocratic mobile phase (85% acetontrile in water, 3.5 mL/min) to yield tartrolon E (4.7 mg, retention time 8 min).

Test [4] relates to C. parvum. Briefly: Neonatal mouse C. parvum infection, quantitative PCR of intestinal parasites. In kind it is in vivo, Cryptosporidium parvum. To be noted: neonatal mice, qPCR. The protocol: To confirm the in vivo activity against Cryptosporidium parvum, neonatal mice were infected with C. parvum (5×10^4 oocysts per mouse), and 24 hours after infection, the mice were dosed twice daily for 4 days with either 4 or 40 mg/kg of tartrolon D/E (specifically, D2) in starting concentrations. Day 5 post-infection, the mice were sacrificed, the intestines collected and total DNA extracted. Intestinal parasite numbers were quantified by quantitative PCR (qPCR) of the C. parvum HSP70 gene and extrapolation to a standard curve standard curve of known oocyst numbers (see Shahiduzzaman, et al., Vet Parasitol 167, 43-9 (2010)). At both the high and the low dose of Tartrolon D/E, nearly 100% of the parasites were eliminated from the intestine as measured by quantitative PCR.
In general terms: Quantitative PCR measures a nucleic acid by following its amplification.

The subject of test [5] is Toxoplasma gondii ME49. Briefly: Bright-Glo luciferase assay of parasite proliferation in HFF cells. Conditions: read-out: EC50 against T. gondii ME49; added 8 h after infection, 24 hours, 3 independent experiments. In kind it is cell-based. The protocol:
Human foreskin fibroblast (HFF) cells were established in 96-well plates, and then infected with ME49 parasites engineered to express green fluorescent protein and firefly luciferase (2.5 to 5×10^5/well). Eight hours after infection, dilutions of Tartrolon D1 isolated as in Example 3, Tartrolon D2 isolated as in Example 4, or vehicle (DMSO) at equivalent concentrations were added to infected cells and the plates incubated for 24 hours (37° C., 5% CO2). Proliferation of the parasites was then measured using Bright-Glo luciferase assay system (available from Promega). Samples were run in triplicate and three independent biological replicates were conducted. The log 10 [Tartrolon D] versus percent inhibition of parasite proliferation was analyzed using the four parameter variable slope analysis in Graphpad Prism.

Test [6] has as its system Sarcocystis neurona. Briefly: S. neurona luciferase proliferation assay in bovine turbinate cells. In kind it is cell-based. To be noted: BT cells, 96 hours. The protocol: Sarcocystis neurona: Bovine turbinate cells (BT cells, ATCC CRL-1390, American Type Culture Collection, Manassas, Va.) were seeded into 96-well plates and infected with S. neurona merozoites that had been engineered to express green fluorescent protein and firefly luciferase (2×10^4/well). Dilutions of tartrolon D2 or DMSO were added to the infected cells and the plates incubated for 96 hours (37° C., 5% CO2). After 96 hours, parasite proliferation was quantified and the data analyzed as described with T. gondii ME49. The assay was conducted once and all samples were run in triplicate.

Test [7] has as its system Plasmodium berghei. In words: Plasmodium berghei-luciferase infection in mice, IVIS imaging. In kind it is in vivo. Conditions: 8 mg/kg intraperitoneal once per day for 5 days, imaged seven days after infection. As for the experimental part:
Mice were infected with Plasmodium berghei expressing luciferase. 48 hours post infection mice were treated with tartrolon D/E (specifically, D2) initially solubilized in 2% methylcellulose and 0.5% Tween80 by intraperitoneal injection for 5 days, once per day. Control mice were treated with vehicle alone. Seven days after infection, mice were given luciferase substrate (150 mg/kg D-luciferin Potassium salt in PBS (Goldbio)) and imaged in an IVIS Lumina II to quantify level of infection.

Test [8] concerns Theileria equi. Briefly: T. equi growth in erythrocytes, hydroethidine flow cytometry. In kind it is cell-based. To be noted: Erythrocyte, 72 hours, averaged from three independent experiments, read-out: EC50, proliferation of Theileria equi. As for the experimental part: Theileria equi: The effect of tartrolon D2 on T. equi growth in vitro was quantified using an assay that has been previously described by Hines, S. A. et al. (Parasit Vectors 8, 33 (2015)). Briefly, wells containing an erythrocyte concentration of 9% and a starting percentage parasitized erythrocyte (ppe) of 0.3% were established in 96-well plates. Parasites were cultured in the presence of tartrolon D2 or DMSO for 72 hours with a change of media and compound every 24 hours. After 72 hours, the parasites were stained with hydroethidine and enumerated by flow cytometry (FACSCaliber). Samples were run in triplicate and three independent experiments conducted. The data was analyzed and the EC50 values calculated as described above for T. gondii ME49.

Test [9] has as its system Babesia bovis. In words: SYBR green-based growth suppression assay in bovine red blood cells. In kind it is cell-based. To be noted: SYBR green fluorescence; listed as tartrolon D2/E; read-out: EC50 against B. bovis. As for the experimental part: Purified tartrolon D/E (with starting materials being either D1 or D2) was tested against another apicomplexan pathogen, Babesia bovis, which proliferates in bovine red blood cells. Growth suppression of B. bovis was quantified using a modified SybrGreen-based assay (Molecular Probes, Life Sciences Technology). SYBR green is an asymmetrical cyanine dye that is used as a nucleic acid stain. In this assay, parasite replication in red blood cells is measured directly by the incorporation of SYBR green into parasite DNA. Tartrolon D/E concentrations ranging from 0.001 to 10,000 nM were tested on infected cells and DMSO (vehicle) was run in parallel as a negative control.

Setting [10] is: cell line 3D7 (Netherlands, clone of NF54).
The mark [11] stands for this setting: cell line Goan Isolate (Goa, India).

Regarding `CC1(C)N=C(N)N=C(N)N1c1ccc(Cl)cc1` [Cycloguanil], the Drug resistance phenotype entry in test [1] (setting [10]) was “S”; in test [1] (cell line 7G8 (Brazil)), “R”; in test [1] (cell line D6 (Sierra Leone)) it was “S”; in test [1] (cell line Dd2 (SE Asia)), “R”; in test [1] (setting [11]) it was “R”; in [1] (cell line HB3 (Honduras)), “S”. Also, the Drug resistance phenotype result in [1] (cell line NF54 (Netherlands)) is given as “S”; in test [1] (cell line TM90C2A (Thailand)) it was “R”; in test [1] (cell line V1/S (Vietnam)), “R”.

As to `C[C@H]1[C@@H](O)O[C@@H]2O[C@@]3(C)CC[C@H]4[C@H](C)CC[C@@H]1[C@@]24OO3` [Dihydroartemisinin, dihydroartemisinin], the EC50 is approximately 0.02 nM in test [2]; 0.2 nM in test [3] (Plasmodium falciparum, 3D7, Erythrocyte, parasite line 3D7, read-out: EC50); 0.14 nM in test [3] (Plasmodium falciparum, DD2, Erythrocyte, parasite line Dd2, read-out: EC50); 0.095 nM in test [3] (Plasmodium falciparum, Erythrocyte, parasite line 7G8, read-out: EC50); 0.21 nM in [3] (Plasmodium falciparum, Erythrocyte, parasite line 2012 Indian Isolate (Goa), read-out: EC50); 0.17 nM in [3] (Plasmodium falciparum, Erythrocyte, parasite line D6, read-out: EC50). The EC50 in test [3] (Plasmodium falciparum, Erythrocyte, parasite line V1S, read-out: EC50) stood at 0.084 nM; in [3] (Plasmodium falciparum, HB3, Erythrocyte, parasite line HB3, read-out: EC50), 0.16 nM; in test [3] (Plasmodium falciparum, NF54, Erythrocyte, parasite line NF54, read-out: EC50) it was 0.15 nM; in test [3] (Plasmodium falciparum, TM90C2A, Erythrocyte, parasite line TM90C2A, read-out: EC50), 0.091 nM; in [3] (parasite line 3D7, listed as Dihydroartemisinin (DHA), read-out: EC50), 0.11 nM.

In the case of `OC(c1cc(C(F)(F)F)nc2c(C(F)(F)F)cccc12)C1CCCCN1` (stereo not drawn) [Mefloquine], the Drug resistance phenotype result is reported as “S” in [1] (setting [10]); “S” in [1] (cell line 7G8 (Brazil)); “S” in test [1] (cell line D6 (Sierra Leone)); “R” in [1] (cell line Dd2 (SE Asia)); “S” in test [1] (setting [11]); “S” in test [1] (cell line HB3 (Honduras)). Moreover, the Drug resistance phenotype entry in test [1] (cell line NF54 (Netherlands)) was “S”; in test [1] (cell line TM90C2A (Thailand)) it was “R”; in test [1] (cell line V1/S (Vietnam)), “S”.

With `C=C[C@H]1C[N@@]2CC[C@H]1C[C@H]2[C@H](O)c1ccnc2ccc(OC)cc12` [Quinine], the Drug resistance phenotype result is “S” in test [1] (setting [10]); “R” in test [1] (cell line 7G8 (Brazil)); “S” in test [1] (cell line D6 (Sierra Leone)); “R” in [1] (cell line Dd2 (SE Asia)); “S” in test [1] (cell line HB3 (Honduras)); “S” in [1] (cell line NF54 (Netherlands)). Besides, the Drug resistance phenotype entry in test [1] (cell line V1/S (Vietnam)) is recorded as “R”.

On to `COc1ncnc(NS(=O)(=O)c2ccc(N)cc2)c1OC` [Sulfodoxine], for which the Drug resistance phenotype result in test [1] (setting [10]) is on record as “R”; in [1] (cell line D6 (Sierra Leone)), “S”; in test [1] (cell line Dd2 (SE Asia)) it was “R”; in test [1] (setting [11]), “R”; in test [1] (cell line HB3 (Honduras)), “S”; in [1] (cell line NF54 (Netherlands)), “R”.

Consider `C[C@@H]1C(=O)C[C@@H](O)CC/C=C/C=C\CC[C@H](C)OC(=O)C(O)[C@]2(O)O[C@@H](CC[C@H]2C)[C@H](C)C(=O)C[C@@H](O)CC/C=C/C=C\CC[C@H](C)OC(=O)C(O)[C@]2(O)O[C@H]1CC[C@H]2C` (stereo partly drawn) [Tartrolon D2, tartrolon D], for which the “parasites eliminated from the intestine” value in test [4] (high dose 40 mg/kg twice daily for 4 days from 24 h after infection) and in [4] (low dose 4 mg/kg twice daily for 4 days from 24 h after infection) was approximately 100% throughout. For the same compound, the EC50 was 2.7 nM in test [5]; approximately 13.2 nM in test [6]; approximately 0.35 nM in test [8]; approximately 0.105 nM in test [2]; 16 nM in test [9]. Further, the “P. berghei infection (luminescence)” value in test [7] is listed as “reduced P. berghei infection”.

Consider `C[C@@H]1CCC2CC(=O)C[C@@H](O)CC/C=C/C=C\CC[C@H](C)OC(=O)[C@@H]3O[B-]45O[C@@H](C(=O)O[C@@H](C)CC/C=C\C=C\CC[C@H](O)CC(=O)CC6CC[C@@H](C)[C@]3(O6)O4)[C@@]1(O2)O5` [Tartrolon E, tartrolon E], for which the EC50 in [3] (strain Dd2, purified tartrolon E as starting material (FIG. 11C), read-out: EC50 against Dd2) was approximately 0.16 nM.
